Reference: publication PMC8050276, “Estradiol analogs attenuate autophagy, cell migration and invasion by direct and selective inhibition of TRPML1, independent of estrogen receptors” (Scientific Reports, 2021)
“And” between values parts separate entries of the source, which are not always exact repeats. Equal values may be shown once. “Also recorded” adds a separate entry of the source. Read-outs that look alike come from different tables or passages of the source.

How the values were obtained:
Assay type in all cases: cell-based
[1] = molecular target: T1, hTRPML2-YFP (Homo sapiens, UniProt Q8IZK6); assay: Fluo-4 Ca2+ influx assay, HEK293 stably expressing hTRPML2-YFP, activated with ML-SA1
T1 construct: expressed in transfected cells
T1 sequence (Q8IZK6 1-566): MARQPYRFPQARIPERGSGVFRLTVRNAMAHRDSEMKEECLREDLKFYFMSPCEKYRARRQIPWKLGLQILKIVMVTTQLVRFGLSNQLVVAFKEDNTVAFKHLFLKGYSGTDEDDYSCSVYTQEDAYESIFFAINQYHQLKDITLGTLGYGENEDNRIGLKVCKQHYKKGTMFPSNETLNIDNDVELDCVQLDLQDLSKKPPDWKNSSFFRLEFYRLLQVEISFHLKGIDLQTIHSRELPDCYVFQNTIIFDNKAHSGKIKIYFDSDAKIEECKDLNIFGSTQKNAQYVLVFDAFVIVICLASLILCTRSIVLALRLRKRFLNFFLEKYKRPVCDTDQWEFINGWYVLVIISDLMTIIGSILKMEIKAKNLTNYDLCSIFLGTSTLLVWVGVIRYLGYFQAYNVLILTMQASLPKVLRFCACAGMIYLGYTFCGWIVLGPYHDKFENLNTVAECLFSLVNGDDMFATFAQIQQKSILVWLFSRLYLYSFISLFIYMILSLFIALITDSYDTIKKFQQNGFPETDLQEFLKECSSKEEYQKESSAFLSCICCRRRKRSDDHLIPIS

[2] = molecular target: T2, hTRPML3-YFP (Homo sapiens, UniProt Q8TDD5); assay: Fluo-4 Ca2+ influx assay, HEK293 stably expressing hTRPML3-YFP, activated with ML-SA1
T2 construct: expressed in transfected cells
T2 sequence (Q8TDD5 whole entry): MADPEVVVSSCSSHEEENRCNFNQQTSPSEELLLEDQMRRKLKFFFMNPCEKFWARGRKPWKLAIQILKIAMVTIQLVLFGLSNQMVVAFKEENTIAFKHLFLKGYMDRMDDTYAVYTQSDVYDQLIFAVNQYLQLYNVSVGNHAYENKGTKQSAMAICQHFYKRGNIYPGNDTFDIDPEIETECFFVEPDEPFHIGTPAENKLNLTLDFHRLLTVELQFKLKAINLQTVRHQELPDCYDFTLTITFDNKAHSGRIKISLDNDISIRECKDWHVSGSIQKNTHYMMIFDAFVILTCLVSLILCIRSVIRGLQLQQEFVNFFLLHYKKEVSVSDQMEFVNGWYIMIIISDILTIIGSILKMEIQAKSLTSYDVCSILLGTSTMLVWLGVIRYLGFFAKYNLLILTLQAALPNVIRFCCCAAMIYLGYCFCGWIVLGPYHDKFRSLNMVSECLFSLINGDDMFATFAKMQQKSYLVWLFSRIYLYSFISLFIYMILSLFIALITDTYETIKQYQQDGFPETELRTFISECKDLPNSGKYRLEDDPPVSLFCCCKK
Procedure: To identify inhibitors of TRPML1 and TRPML3, the Spectrum Collection compound library (MS Discoveries; 2000 compounds) and additional 430 bioactive compounds were screened. To this end, fluorometric Ca^2+ influx assays were performed by using the calcium dye Fluo-4/AM (Invitrogen, Thermo Fisher Scientific, Waltham, MA, USA) and a custom-made fluorescence imaging plate reader built into a robotic liquid handling station (Freedom Evo 150, Tecan, Männedorf, Switzerland). All measurements were done in a HEPES buffered solution (HBS), containing 132 mM NaCl, 6 mM KCl, 1 mM MgCl2, 1 mM CaCl2, 5.5 mM D-glucose, 10 mM HEPES, pH 7.4. Screening compounds dissolved in DMSO (10 mM) were prediluted in 150 mM NaCl, 20 mM HEPES, pH 7.4, to a concentration of 200 µM. For primary screens, HEK293 stably expressing plasma membrane-targeted TRPML1 or TRPML3 were trypsinized and resuspended in cell culture medium supplemented with 4 µM Fluo-4/AM. After incubation at 37 °C for 30 min, the cell suspension was briefly centrifuged resuspended in HBS, and dispensed into black pigmented, clear-bottom 384-well microwell plates (Greiner μClear, Frickenhausen, Germany). Plates were placed into the FLIPR and fluorescence signals (excitation 470 nm, emission 515 nm) were recorded with a Zyla 5.5 camera (Andor, Belfast, UK) and the μManager software like previously described. In a first video, compound libraries were successively added to the cells with the Tecan 96-tip multichannel arm to a final concentration of 20 µM to map unspecific effects like autofluorescence or toxicity. In a second step the agonist ML-SA1 was pipetted in each well and fluorescence signals were recorded for 10 min. Analyses were done by calculating fluorescence intensities for each well and background areas with ImageJ (National Institutes of Health, Bethesda, MD, USA). Finally, the background was subtracted and the fluorescence intensities were normalized to initial intensities (F/F0). Concentration response curves were generated by the same procedure but compounds were manually prediluted in 96-well plates containing HBS, now supplemented with 0.1% bovine serum albumin. Here data was fitted to a four-parameter Hill equation to obtain Imin, Imax, IC50), and the Hill coefficient n.

[3] = molecular target: T3, human ERα (Homo sapiens, UniProt P03372); assay: Yeast estrogen receptor assay (YES-assay), Saccharomyces cerevisiae transfected with human ERα, lacZ reporter; settings: 0.01-100 µM, 48 h
T3 construct: host or cells: Saccharomyces cerevisiae
T3 sequence (P03372 whole entry): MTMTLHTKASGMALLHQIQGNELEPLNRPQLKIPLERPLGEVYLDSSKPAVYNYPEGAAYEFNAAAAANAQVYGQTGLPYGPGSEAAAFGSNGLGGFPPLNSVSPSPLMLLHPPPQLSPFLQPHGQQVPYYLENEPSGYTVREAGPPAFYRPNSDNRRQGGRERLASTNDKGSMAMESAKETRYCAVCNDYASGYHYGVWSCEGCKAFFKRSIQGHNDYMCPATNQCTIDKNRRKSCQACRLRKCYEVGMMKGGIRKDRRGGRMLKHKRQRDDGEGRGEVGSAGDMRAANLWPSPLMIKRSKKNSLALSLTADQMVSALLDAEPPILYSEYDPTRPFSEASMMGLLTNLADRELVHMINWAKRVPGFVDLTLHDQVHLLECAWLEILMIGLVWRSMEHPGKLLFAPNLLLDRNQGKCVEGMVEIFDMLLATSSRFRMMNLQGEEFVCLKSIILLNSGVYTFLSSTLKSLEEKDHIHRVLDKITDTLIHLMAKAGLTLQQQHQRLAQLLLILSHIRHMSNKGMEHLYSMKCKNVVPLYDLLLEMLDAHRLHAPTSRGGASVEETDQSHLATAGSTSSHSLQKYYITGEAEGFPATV
Procedure: The yeast estrogen receptor assay (YES-assay) was provided by Dr. J.P. Sumpter (Brunel University, Uxbridge, UK; Routledge & Sumpter, 1996) and was used to determine the relative transactivation activity of the human ERα in response to test substances as previously described. Briefly, Saccharomyces cerevisiae stably transfected with a human ERα construct and an estrogen responsive element fused to the reporter gene lacZ encoding for β-galactosidase were treated with the test substances for 48 h. The β-galactosidase enzymatic activity was measured in a colorimetric assay using the substrate chlorophenol red β-D-galactopyranoside (Roche Diagnostics, Mannheim Germany). Formation of chlorophenol red was measured at 540 nm. For the test, all compounds were diluted in DMSO. 17β-estradiol (10 nM; Sigma, Deisenhofen, Germany) served as positive control and DMSO was used as vehicle control. All compounds, were dose dependently tested in a concentration range of 0.01–100 µM, using technical quadruplicates and biological triplicates.

[4] = test system: LC3; assay: Autophagy assay, LC3 immunoblot in human fibroblasts (Fed/Hbss, with bafilomycin A1); settings: Hbss starvation, with BafA1
Procedure: 5 × 10^4 wild-type human fibroblasts were seeded in a 12-well plate and treated overnight with DMSO or different TRPML1 inhibitors (EDME, PRU-10, PRU-12). The day after, cells were treated for 3 h in full media (Fed) or HBSS supplemented with 10 mM HEPES (nutrient starved) in presence of DMSO or different TRPML1 inhibitors (EDME, PRU-10, PRU-12). For autophagic flux experiments, cells were co-treated with 100 nM of bafilomycin A1 (Sigma).
Total cell lysates were prepared using TRIS HCl 10 mM pH 8.0 and 0.2% SDS supplemented with protein and phosphatase inhibitors (Sigma). Protein concentration was determined using the Bradford method. After SDS–polyacrylamide gel electrophoresis (PAGE) and immunoblotting, the protein recognized by the specific antibody was visualized by chemiluminescence methods (Luminata Crescendo Western HRP substrate, Millipore) using HRP-conjugated anti-rabbit or anti-mouse secondary antibodies (Cell Signalling). Images were acquired using Li-Cor Odyssey Fc Imaging System and densitometric quantification of unsaturated images was performed using ImageJ software (NIH). Uncropped and unprocessed western blot scans are provided as Fig. S1. The following primary antibodies were used: LC3 (Novus Cat. No. NB100-2220, 1:1000 in 5% milk), TFEB (Cell Signaling Cat. No. 4240, 1:1000 in 5% BSA) and β-actin (Santa Cruz Cat. No. Sc-47778, 1: 1000 in 5% BSA).

[5] = TRPML2 IC50, Fluo-4, 5 µM ML-SA1, Table S1
[6] = Fluo-4, 5 µM ML-SA1, Table S1, read-out: TRPML3 IC50

Structure (SMILES) | IC50 ([1]; Fluo-4, 5 µM ML-SA1, Table S1, read-out: TRPML2 IC50) | IC50 [2] [µM] | effect/efficacy at ERα [3] | concentration showing efficacy on autophagy (LC3) [4] [µM] | IC50 [1, 5] [µM] | IC50 [2, 6] [µM]
COc1ccc2c(c1)CC[C@@H]1[C@@H]2CC[C@]2(C)[C@@H](O)CC[C@@H]12 [EDME, 17β-estradiol methyl ether] | 5.85 µM and 5.9 µM | 19.5 | comparably strong effects | 1 |  | 
C=Cc1ccc2c(c1)CC[C@@H]1[C@@H]2CC[C@]2(C)[C@@H](O)CC[C@@H]12 [PRU-10] |  |  | relatively low efficacy; also recorded: weakest effects | 3 | 5.4 | 15.8
CC(=O)c1ccc2c(c1)CC[C@@H]1[C@@H]2CC[C@]2(C)[C@@H](O)CC[C@@H]12 [PRU-12] |  |  | relatively low efficacy; also recorded: weakest effects | 1 | 5.28 | 14.1
